From patent publication US20230390315A1, “COMPOSITIONS AND METHODS FOR TREATING ISCHEMIC CONDITIONS” (The Regents of the University of California, priority 2020, published 2023)

Experiments:
bovine pituitary cells = assay: Bovine pituitary cell proliferation assay; type: cell-based; conditions: alone or in combination with growth factors
Protocol: (§1) Proliferation assays with fibroblasts were done in low-glucose DMEM containing 1% FBS, with or without 10 ng/ml bFGF, or 100 ng/ml human EGF and the assay was ended at day 3. ARPE-19 cells were gently lifted with 0.025% trypsin and plated in RtEGM media (Clonetics) containing 2% FBS, L-glutamine, human bFGF and GA-1000. Once cells were attached to plates, serum-free RtEGM media was used to maintain the cultures. For proliferation assays, 1500 human RPE cells were plated into 96-well plates in low-glucose DMEM containing 1% FBS. A673, U87MG, Calu6 and AML12 cells were grown until confluent and were then harvested and re-suspended in appropriate assay media. For proliferation assays, cells were plated at the density of 1000-2000 cells/well in low-glucose DMEM containing 5% FBS or otherwise stated. Bovine pituitary cells (pituitary folliculostellate cells) were isolated as previously described. For proliferation assays with human epidermal keratinocytes, human DMVECs and human dermal fibroblast cells, 1000 cells/well were plated in low-glucose DMEM containing 1% FBS with or without various growth factors. The assay was ended at day 3 for bovine pituitary cells and at day 4 for all the other cell types. […] Four days later, tumor cell growth was measured by the MTS assay (Promega, Madison, WI), a colorimetric assay that measures metabolic activity of viable cells. […]

U87MG = U87MG proliferation assay; type: cell-based, human
Protocol: as §1

HUVEC = HUVEC proliferation assay; type: cell-based, human
Protocol: Proliferation assays with BCECs and BRECs were performed. Log-phase growing BCECs or BRECs (passage <10) were trypsinized, re-suspended and seeded in 96-well plates (no coating) in low-glucose DMEM supplemented with 10% bovine calf serum, 2 mM glutamine, and antibiotics (growth medium), at a density of 1200-1500 cells per well in 200 μl volume. All reagents were added at the indicated final concentrations. After 3-6 days, cells were incubated with AlamarBlue for 4 hrs. Fluorescence was measured at 530 nm excitation wavelength and 590 nm emission wavelength. The experiments were repeated at least three times. To create a hypoxic condition, cells were placed in a hypoxia incubator with a mixture of gas consisting of 1% 02, 5% CO2 and 94% Nz. On each 96-well plate, untreated and VEGF-treated (10/ng/ml) wells were included to monitor plate-to-plate variations. 20% methanol or 0.05% DMSO served as negative controls. 0.05% DMSO served as negative controls when Cas was tested in these cells. Human RMVECs and human adult DMVECs were split into Gelatin-coated 96 wells (2000 cells per well) in low glucose DMEM containing 10% FBS. 1200 cells/well was set up for proliferation assay in low glucose media containing FBS. Data was collected at day 4 or 5. HUVEC (p7-10) were grown on gelatin-coated plate until it reached 70-80% confluency.
On the day of the assay, cells were dissociated with 0.05% trypsin, which was neutralized with 0.5% FBS-containing EBM. Cells were briefly spun and then re-suspended in 0.5% FBS-media. Cells were counted and plated in 96-well, 1000 cells/well. Triplicate wells were used for each treatment. Data were collected at day 3, and then cells were fixed in 4% paraformaldehyde for 15 min before adding crystal violet. Cell-covered areas were quantified after taking pictures by Image J software.

human dermal fibroblasts = assay: Human dermal fibroblast proliferation assay; type: cell-based; conditions: alone or in combination with growth factors
Protocol: as §1

[1] = Cellular uptake of ManN in BCECs; type: in vitro ADME, bovine
ERK and AKT = assay: Western blot of ERK and AKT activation in HUVEC and hDMVECs; type: cell-based, human; conditions: 40 uM; HUVEC and hDMVECs
Protocol: Cells were allowed to reach 80% confluency in 12-well plates. […] At various time points, plates were taken out of the incubator and kept on ice. Cell monolayers were first washed once with ice-cold PBS before lysis with 250 μl of Pierce RIPA buffer (ThermoFisher Scientific, Rockford, IL) or use 50 mM Tris-HCl (pH 7.6), 150 mM NaCl, 10% Glycerol, 1% NP-40 containing protease/Phosphatase inhibitor cocktail (100×) (Cell signaling, #5872). Lysates were collected and mixed with 4×Bolt LDS Sample Buffer (Novex, Carlsbad, CA) in the presence of Halt protease inhibitors and phosphatase inhibitor cocktail (ThermoFisher scientific, #NP0007). The samples were subjected to SDS-PAGE (Bolt 4-12% Bis-Tris Plus, Invitrogen) using Bolt MES SDS running buffer or NuPAGE 3-8% Tris-Acetate gel using Tris-Acetate SDS running buffer (Novex). HUVECs (passage 6-8) were plated in EBM-2 basal medium (Lonza) with 0.2% FBS. […] Equal amounts of protein lysates were analyzed by SDS-PAGE and blotted with the indicated antibodies. Proteins were transferred using Tris-Glycine buffer with 20% Methanol (Proteonomics grade) (Apex BioResearch Products). Membranes were first incubated with 5% milk in TBST, pH 7.6 (TEKnova, Hollister, CA), followed by blotting with primary and secondary antibodies. […]

SMILES	proliferation of bovine pituitary cells (bovine pituitary cells)	growth of U87MG (U87MG)	additivity with VEGF on proliferation (HUVEC; HUVEC)	toxicity (HUVEC; HUVEC, at 5 mM)	HUVEC growth (HUVEC; ManN by itself)	proliferation of human dermal fibroblasts (human dermal fibroblasts)	cell entry and accumulation [1]	ManN detected in 1 mg cell lysate ([1]; 400 uM ManN for 2 hours) [nmol]	activation of ERK and AKT (ERK and AKT)
N[C@H](C=O)[C@@H](O)[C@H](O)[C@H](O)CO [ManN, 2-Amino-2-deoxy-D-mannose]	no increases in proliferation	did not promote growth	dose-dependent additivity with VEGF	minimal toxicity	stimulated	no increases in proliferation	entered and accumulated inside the cells in a concentration-dependent manner	0.66	
O=C1N[C@@H]2[C@@H](O)[C@@H](O)[C@H](O)[C@@H](CO)N2C1=O [Kif, Kifunensine, reference compound]									significantly activate
